{"source": "paper PMC8008885", "about": "(Journal of Enzyme Inhibition and Medicinal Chemistry, 2021)", "key": {"[1]": {"system": "HD (Q111/Q111) striatal cells", "assay": "Western blot analysis of SETDB1 protein and H3K9me3 level in HD (Q111) cells", "type": "cell-based", "conditions": "HD (Q111) cell", "protocol": "Cells were homogenised with Dounce homogeniser in […] of phosphate-buffered saline containing 0.4 mM sodium butyrate, 5% Triton X-100, 3 mM DTT, 1 mM sodium orthovanadate, 5 mM sodium fluoride, 3 mM PMSF, 3 mM DTT, 0.5 mg/ml leupeptin, and 10 mg/ml aprotinin as previously described. The nuclear pellets were collected and washed twice with the above-described 5% Triton buffer. Histones were extracted by solubilising in […] of 0.2 M HCl on a shaker for 2 h. After neutralising the pH of the acid-extracted solution containing the histone pool with ammonium acetate, the protein content was quantified. Each histone extract (an amount of […]) was placed onto each well of the dot blot apparatus pre-assembled with a nitrocellulose membrane and vacuumed for 30 min. After releasing the vacuum, the nitrocellulose membrane was removed and washed twice with TBS-T for 5 min. Then, the nitrocellulose membrane was blocked with 5% milk/TBS-T for 30 min and subsequently incubated with primary antibody in 5% milk/TBS-T for 24 h at cold room. The nitrocellulose membrane was washed twice with TBS-T for 5 min and incubated with secondary antibody in 1% milk (15 ml) for one hour at room temperature. After washing the membrane twice with TBS-T for 5 min, the immune reactivity was developed with Chemiluminescent Kit. […]"}, "[2]": {"system": "HD (Q111/Q111) striatal cells", "assay": "Confocal microscopy of H3K9me3 immunoreactivity in HD cells", "type": "cell-based", "protocol": "Immunofluorescence staining and confocal microscopy was used to determine the trimethylated-histone H3 (Lys9) (H3K9me3) (Millipore, Billerica, MA) (1:1000). The procedures were performed as previously described. The specimens were incubated for 1 h with Alexa Fluor 594 goat anti-rabbit antibody (abcam, Cambridge, UK; 1:400) after incubation of the primary antibody. Images were analysed using an A1 Nikon confocal laser scanning microscope (Nikon, Tokyo, Japan).\nMoreover, the promoter assay was carried out."}, "SETDB1 enzyme": {"target": "SETDB1 enzyme (Homo sapiens, UniProt Q15047)", "assay": "biochemical", "procedure": "SETDB1 enzyme activity was analysed using commercially available SETBD1 chemiluminescent assay kit (BPS Bioscience, San Diego, CA, #51056) according to the manufacturer’s instructions. All analyses were performed in duplicates and all reagents used are supplied in the kit. […] Total 50 µL mixture of histone methylation transfer buffer (50 mM Tris–HCl, pH 9.0, 1 mM phenylmethylsulfonyl fluoride, and 0.5 mM dithiothreitol) containing 20 µM SAM, each concentration of inhibitors and 1.25 ng/µL SETDB1 enzyme was added to each well of a 96-well plate. The wells were pre-coated with histone H3 peptide substrate. Reactions were allowed to proceed for 1 h 30 min at room temperature. Methylated K9 residue of H3 peptide was detected with anti-methylated H3K9 primary antibody and HRP-conjugated secondary antibody. Chemiluminescence resulting from the reaction between the HRP-conjugated secondary antibody and the added HRP substrate was measured using a SpectraMax M2 plate reader (Molecular Devices, Sunnyvale, CA).\nThe inhibitory activity at each concentration was recorded by detecting chemiluminescence signal after treatment of H3K9 antibody followed by addition of the HRP substrate."}}, "data": [{"smiles": "C=CCOc1cccc2nc(N3CCCC3)ccc12", "note": "[APQ, 5-allyloxy-2-(pyrrolidin-1-yl)quinoline]", "values": [{"measurement": "H3K9me3 level", "setting": "[1]", "result": "reduced"}, {"measurement": "SETDB1 protein levels", "setting": "[1]; dose-dependent", "result": "significantly decreased"}, {"measurement": "H3K9me3 immunoreactivity", "setting": "[2]", "result": "considerably decreased"}, {"measurement": "IC50", "setting": "SETDB1 enzyme", "result": 65, "unit": "µM"}]}]}
